Laboratory results as given in ChEMBL document CHEMBL5365471, “Discovery of marine phidianidine-based Nrf2 activators and their potential against oxLDL- and HG-induced injury in HUVECs” (Bioorg Med Chem Lett, 2023).
Activity calls are given as the source filed them. No cut-off for these calls is given here.

Experiments:
HUVEC [1] = test: Cytotoxicity against HUVEC assessed as effect on cell viability by SRB assay; type: toxicity, cell-based; conditions: human
[2] = target: T1, Nuclear factor erythroid 2-related factor 2 (Homo sapiens) (UniProt Q16236); test: Induction of Nrf2/ARE activation in human Hela cells at 20 uM measured after 12 to 24 hrs by luciferase reporter gene assay relative to control; type: cell-based; conditions: filed as activator, time 12-24 hrs
T1 sequence (whole entry): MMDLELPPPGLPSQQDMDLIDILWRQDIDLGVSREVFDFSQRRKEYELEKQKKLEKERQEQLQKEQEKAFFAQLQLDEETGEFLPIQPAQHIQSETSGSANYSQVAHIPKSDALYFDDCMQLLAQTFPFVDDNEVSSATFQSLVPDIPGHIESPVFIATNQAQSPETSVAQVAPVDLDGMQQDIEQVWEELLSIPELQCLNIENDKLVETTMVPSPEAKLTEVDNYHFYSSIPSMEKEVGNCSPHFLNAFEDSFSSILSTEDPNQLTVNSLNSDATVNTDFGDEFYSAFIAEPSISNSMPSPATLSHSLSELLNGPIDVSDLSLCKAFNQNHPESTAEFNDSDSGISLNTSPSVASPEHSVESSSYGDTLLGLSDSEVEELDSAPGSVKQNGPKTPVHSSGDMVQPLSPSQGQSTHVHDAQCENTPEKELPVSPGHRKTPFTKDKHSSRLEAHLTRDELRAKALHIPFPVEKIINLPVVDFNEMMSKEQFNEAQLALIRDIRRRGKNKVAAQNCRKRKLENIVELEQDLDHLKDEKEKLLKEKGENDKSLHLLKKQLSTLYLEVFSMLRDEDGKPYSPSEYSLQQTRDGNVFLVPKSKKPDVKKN

[3] = target: T1, Nuclear factor erythroid 2-related factor 2 (Homo sapiens); test: Induction of Nrf2 nuclear translocation in oxLDL-induced HUVEC cells at 5 to 10 uM measured after 6 hrs by immunofluorescence staining analysis; type: cell-based; conditions: filed as activator, dose 5-10 µM
HUVEC [4] = test: Cytoprotective activity against oxLDL-induced apoptosis in HUVEC treated with scambled siRNA at 10 uM measured after 6 hrs by TUNEL assay; type: functional, cell-based; conditions: Homo sapiens
HUVEC [5] = test: Cytoprotective activity against oxLDL-induced HUVEC cell damage assessed as increase in cell viability at 10 uM by SRB assay; type: functional, cell-based; conditions: Homo sapiens
HUVEC [6] = test: Cytoprotective activity against high glucose-induced HUVEC cell damage assessed as increase in cell viability at 10 uM by SRB assay; type: functional, cell-based; conditions: Homo sapiens
HUVEC [7] = test: Cytoprotective activity against oxLDL-induced apoptosis in Nrf2-knockdown HUVEC at 10 uM measured after 6 hrs by TUNEL assay; type: functional, cell-based; conditions: Homo sapiens
HUVEC [8] = test: Cytoprotective activity against high glucose-induced apoptosis in Nrf2-knockdown HUVEC at 10 uM measured after 24 hrs by TUNEL assay; type: functional, cell-based; conditions: Homo sapiens
[9] = target: Keap1/Nrf2 (Homo sapiens) (UniProt Q16236+Q14145); test: Inhibition of Keap1-Nrf2 protein-protein interaction (unknown origin) at 100 uM measured after 60 mins by FITC-betaAla-DEETGEF-OH probe based fluorescent polarization assay
Keap1/Nrf2 (Homo sapiens), sequence (Q14145 whole entry, looked up, one chain of several): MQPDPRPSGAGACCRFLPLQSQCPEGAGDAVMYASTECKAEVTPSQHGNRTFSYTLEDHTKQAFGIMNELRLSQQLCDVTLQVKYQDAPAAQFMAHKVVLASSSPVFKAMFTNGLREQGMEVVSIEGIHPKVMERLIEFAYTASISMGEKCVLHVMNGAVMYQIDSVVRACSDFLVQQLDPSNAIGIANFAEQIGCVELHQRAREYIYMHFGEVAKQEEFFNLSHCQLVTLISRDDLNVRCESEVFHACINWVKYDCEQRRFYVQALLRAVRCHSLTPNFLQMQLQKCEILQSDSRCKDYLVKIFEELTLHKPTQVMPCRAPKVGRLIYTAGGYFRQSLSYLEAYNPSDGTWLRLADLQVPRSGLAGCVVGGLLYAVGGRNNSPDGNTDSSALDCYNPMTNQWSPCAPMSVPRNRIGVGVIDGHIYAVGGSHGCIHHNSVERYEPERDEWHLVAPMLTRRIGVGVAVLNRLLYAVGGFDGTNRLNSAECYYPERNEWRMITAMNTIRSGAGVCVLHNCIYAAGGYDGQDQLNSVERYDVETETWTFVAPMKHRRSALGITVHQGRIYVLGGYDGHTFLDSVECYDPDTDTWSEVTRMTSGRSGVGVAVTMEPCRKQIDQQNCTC

HUVEC [10] = test: Cytoprotective activity against high glucose induced apoptosis in HUVEC treated with scambled siRNA at 10 uM measured after 24 hrs by TUNEL assay; type: functional, cell-based; conditions: Homo sapiens
[11] = target: T1, Nuclear factor erythroid 2-related factor 2 (Homo sapiens); test: Induction of Nrf2/ARE activation in human Hela cells at 10 uM measured after 12 to 24 hrs by luciferase reporter gene assay relative to control; type: cell-based; conditions: filed as activator, time 12-24 hrs
HUVEC [12] = test: Cytoprotective activity against high glucose-induced apoptosis in HUVEC cells measured after 24 hrs by TUNEL assay; type: functional, cell-based; conditions: Homo sapiens, dose 5-10 µM
[13] = target: T1, Nuclear factor erythroid 2-related factor 2 (Homo sapiens); test: Induction of Nrf2 nuclear translocation in high glucose-induced HUVEC cells at 5 to 10 uM measured after 24 hrs by immunofluorescence staining analysis; type: cell-based; conditions: filed as activator, dose 5-10 µM
HUVEC [14] = test: Cytoprotective activity against oxLDL-induced apoptosis in HUVEC cells measured after 6 hrs by TUNEL assay; type: functional, cell-based; conditions: Homo sapiens, dose 5-10 µM
[15] = target: T1, Nuclear factor erythroid 2-related factor 2 (Homo sapiens); test: Induction of Nrf2/ARE activation in human Hela cells at 5 uM measured after 12 to 24 hrs by luciferase reporter gene assay relative to control; type: cell-based; conditions: filed as activator, time 12-24 hrs
[16] = target: T1, Nuclear factor erythroid 2-related factor 2 (Homo sapiens); test: Induction of Nrf2/ARE activation in human Hela cells at 1 uM measured after 12 to 24 hrs by luciferase reporter gene assay relative to control; type: cell-based; conditions: filed as activator, time 12-24 hrs

fold change (FC) [2]: 7.41 | Activity [3]: Active | inhibition [9]: inactive | fold change (FC) [11]: 7.78 | Activity [13]: Active | fold change (FC) [15]: 3.69 | fold change (FC) [16]: 1.89
SMILES: COc1ccc(/C=C/C(=O)N2CCN(Cc3noc(Cc4c[nH]c5ccccc45)n3)CC2)cc1O
Activity (HUVEC [1]): Non-Toxic | Activity (HUVEC [4]): Active | Activity (HUVEC [5]): Active | Activity (HUVEC [6]): Active | Activity (HUVEC [7]): inactive | Activity (HUVEC [8]): inactive | Activity (HUVEC [10]): Active | Activity (HUVEC [12]): Dose-Dependent Effect | Activity (HUVEC [14]): Dose-Dependent Effect
